The subject of the assay is aerobic bacteria. In words: total bacterial count test on finished gloves (TSA plates). The following applies: FIG. 5, total bacteria count on prepared articles as a function of CHG concentration in the coagulant. As to the method:
In order to determine the effectiveness of the antimicrobial coagulant on a finished article, a total bacterial count test was completed on the article prepared using the above formulas. The following three concentrations were prepared: 0.8% Saline Solution (sodium Chloride), 4% TSA & 6.5% SDA solution, which were subsequently sterilized at 121° C. for 15 minutes. Three gloves made with each formula were cut into two pieces each and were soaked into 60 ml Saline solution and shaken for 10 minutes. After that, 1 ml of the solution and 1 ml of Agar solution (TSA and SDA) were pipetted out into a Petri dish. The Petri dish plates were incubated for 2 days at 30-35° C. for TSA & 4 days at 20-25° C. for SDA. The colonies on each plate was counted and total fungus/aerobic bacteria count per glove was calculated as: Total Aerobic Bacteria Count Per Glove=(Count of TSA plate*60)/3 Total Fungus Count Per Glove=(Count of SDA plate*60)/3 The results of total bacteria count on TSA for above four samples and control sample are listed below.

In the case of `N=C(NCCCCCCNC(=N)NC(=N)Nc1ccc(Cl)cc1)NC(=N)Nc1ccc(Cl)cc1.O=C(O)[C@H](O)[C@@H](O)[C@H](O)[C@H](O)CO.O=C(O)[C@H](O)[C@@H](O)[C@H](O)[C@H](O)CO` [CHG, chlorhexidine gluconate], the “concentration of CHG up to which total bacteria count decreased (above it the count increased)” value is given as “approximately 0.02%”.

These data come from US10786930B2, “Articles having antimicrobial properties and methods of manufacturing the same” (Medline Industries, Inc., priority 2010, dated 2020).
